Measurements as given in patent publication US20240287065A1, “COMPOUND AS CDK KINASE INHIBITOR AND USE THEREOF” (TYK MEDICINES (ZHENGZHOU) , INC., priority 2021, published 2024).

Key:
[1] = system: HCC1806 cells; test: Cell proliferation inhibition assay (MTT, 7 days); type: cell-based; details: Homo sapiens, HCC1806, 168 h, HCC1086 [sic], 7 days incubation
Experimental: (§1) MCF7, T47D, OVCAR3 and HCC1806 cells were inoculated in 96-well plates at 3000, 3000, 2500, and 2000 cells/well, respectively, and cultured overnight at 37° C., 5% C02 incubator.
(§2) 1. […] Then 2.5 μl of the stock solution was dissolved in 497.5 μl of DMSO-free medium, and then a 3-fold serial gradient dilution was performed with 0.1% DMSO medium for a total of 9 concentrations, and the concentrations of the compounds after dilution were as follows: • 10000 nM, 3333.33 nM, 1111.11 nM, 370.34 nM, 123.45 nM, 41.15 nM, 13.72 nM, 4.57 nM, and 1.52 nM. • b) After fully mixing, 20 μL of compound solutions were added into cell culture plates containing 80 μL of cells respectively, with 4 replicate wells for each concentration. • c) The cells were transferred to an incubator and incubated for 7 days, and exchanged with fresh culture medium containing the same concentration of compounds when incubated to day 4. 2. MTT assay • a) The cell culture plate was taken out and 10 μL of 5 mg/ml MTT was added to the hood. • b) The cell culture plate was put back into the incubator and continued to incubate for 3 hours. • c) The cell culture plate was taken out to remove the culture medium, and 100 μL of isopropanol (0.4 mMHCl, 0.4% NP40) was added to the plate, and the plate was shaken on a shaker at room temperature for 30 minutes and read at 570 nm. 3. Data analysis
(§3) The survival rate (% Cell Survival) was calculated using the following equation:
(§4) % Cell Survival=100%×(OD_Sample−OD_LCave)/(OD_HC−OD_LCave) • OD_HC: 0.1‰ cell readings of DMSO control • OD_Sample: cell readings of compound addition • OD_LC: readings of blank medium • Analyed by Prizm: Dose-response-Inhibition Log(inhibitor) vs response (three parameters for the best fit)
(§5) IC50 (nM) values were calculated by concentration-response curve fitting.

[2] = system: MCF7 cells; test: Cell proliferation inhibition assay (MTT, 7 days); type: cell-based; details: Homo sapiens, 168 h, 7 days incubation
Experimental: as §1, §2, §3, §4, §5

[3] = system: OVCAR3 cells; test: Cell proliferation inhibition assay (MTT, 7 days); type: cell-based; details: Homo sapiens, OVCAR-3, 168 h, 7 days incubation
Experimental: as §1, §2, §3, §4, §5

[4] = system: T47D cells; test: Cell proliferation inhibition assay (MTT, 7 days); type: cell-based; details: Homo sapiens, 168 h, 7 days incubation
Experimental: as §1, §2, §3, §4, §5

[5] = molecular target: CDK2/CycE1 (Homo sapiens, UniProt P24941); test: Enzyme activity test; type: biochemical;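 further: values come from the source column headed CDK2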
Experimental: (§6) • 1. The test compounds and pabocinib were configured into a […] solution of DMSO; • 2. 20 nL of stock solution was transferred to a 384-well plate using Echo550. DMSO was used as a blank control.
(§7) • 1. according to the following table to prepare 1.3X enzyme solution containing enzyme, substrate and cofactor; • 2. 15 μL of 1.3X enzyme solution was added to each well and the mixture was incubated for 30 min at room temperature; • 3. 5 μL of ATP solution was added to initiate the reaction. The final volume of each well was 20 μL; • 4. After incubation for 150 min at room temperature, 75 μL of termination buffer solution was added to terminate the experiment; • 5. The samples were analyzed using EZ reader.
(§8) The % inhibition was calculated using the following equation
(§9) The one treated with DMSO is the positive control (PC)
(§10) The one without enzyme is the negative control (NC)
(§11) % Inhibition=100-100*((CRPC−CRsample)/(CRPC−CRNC))

[6] = molecular target: CDK4/CycD3 (Homo sapiens, UniProt P11802); test: Enzyme activity test; type: biochemical;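 further: values come from the source column headed CDK4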
Experimental: as §6, §7, §8, §9, §10, §11

[7] = molecular target: CDK6/CycD1 (Homo sapiens, UniProt Q00534); test: Enzyme activity test; type: biochemical;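 further: values come from the source column headed CDK6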
Experimental: as §6, §7, §8, §9, §10, §11

CDK4/CycD3, sequence (P11802 whole entry, species assumed): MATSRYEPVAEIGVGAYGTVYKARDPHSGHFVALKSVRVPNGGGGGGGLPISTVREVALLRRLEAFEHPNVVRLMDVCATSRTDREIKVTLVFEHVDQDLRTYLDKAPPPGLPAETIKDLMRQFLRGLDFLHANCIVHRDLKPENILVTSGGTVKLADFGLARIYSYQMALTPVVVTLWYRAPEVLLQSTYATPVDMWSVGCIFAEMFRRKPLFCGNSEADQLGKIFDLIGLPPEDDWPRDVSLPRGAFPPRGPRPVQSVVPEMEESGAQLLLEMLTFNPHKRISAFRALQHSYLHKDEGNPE
CDK4/CycD3, sequence (P30281 whole entry partner, species assumed): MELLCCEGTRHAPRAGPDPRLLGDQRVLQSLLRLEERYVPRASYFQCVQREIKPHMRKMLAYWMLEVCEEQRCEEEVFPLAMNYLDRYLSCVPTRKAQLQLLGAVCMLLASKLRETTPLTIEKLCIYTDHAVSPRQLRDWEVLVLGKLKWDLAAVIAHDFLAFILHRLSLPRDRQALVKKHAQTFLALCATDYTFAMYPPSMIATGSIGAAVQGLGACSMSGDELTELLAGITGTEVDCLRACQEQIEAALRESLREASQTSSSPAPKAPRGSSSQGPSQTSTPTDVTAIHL
CDK6/CycD1, sequence (Q00534 whole entry, species assumed): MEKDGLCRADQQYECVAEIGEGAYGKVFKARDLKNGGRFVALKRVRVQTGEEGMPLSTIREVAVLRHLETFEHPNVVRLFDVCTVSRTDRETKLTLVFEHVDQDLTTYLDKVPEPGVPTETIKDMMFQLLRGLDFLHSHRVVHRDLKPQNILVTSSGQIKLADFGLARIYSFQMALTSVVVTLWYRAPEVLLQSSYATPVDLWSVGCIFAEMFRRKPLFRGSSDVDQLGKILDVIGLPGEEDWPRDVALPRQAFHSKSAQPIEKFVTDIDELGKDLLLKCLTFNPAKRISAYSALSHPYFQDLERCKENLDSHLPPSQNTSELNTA
CDK6/CycD1, sequence (P24385 whole entry partner, species assumed): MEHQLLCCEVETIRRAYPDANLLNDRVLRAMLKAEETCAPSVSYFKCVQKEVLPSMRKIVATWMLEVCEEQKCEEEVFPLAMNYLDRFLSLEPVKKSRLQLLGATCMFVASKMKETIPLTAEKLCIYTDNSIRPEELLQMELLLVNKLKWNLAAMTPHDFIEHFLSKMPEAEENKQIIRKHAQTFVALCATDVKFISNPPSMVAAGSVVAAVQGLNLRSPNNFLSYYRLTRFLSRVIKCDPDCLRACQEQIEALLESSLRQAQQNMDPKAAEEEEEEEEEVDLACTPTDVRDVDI

SMILES | IC50 [1] | IC50 [2] | IC50 [3] | IC50 [4] | IC50 [5] | IC50 [6] | IC50 [7]
C[C@@]1(O)CCC[C@H]1n1c(=O)c(OC(F)F)cc2cnc(NC3CCN(S(=O)(=O)c4ccc(C#N)cc4)CC3)nc21 [Example 6] | ≤ 50 nM | ≤ 50 nM | ≤ 50 nM | ≤ 50 nM | < 10 nM | < 10 nM | < 10 nM
C[C@@]1(O)CCC[C@H]1n1c(=O)c(OC(F)F)cc2cnc(NC3CCN(S(=O)(=O)c4ccc(F)cc4F)CC3)nc21 [Example 7] | 50 to 5200 nM | 50 to 5200 nM | 50 to 5200 nM | ≤ 50 nM | < 10 nM | < 10 nM | < 10 nM
Cc1ccc(S(=O)(=O)N2CCC(Nc3ncc4cc(OC(F)F)c(=O)n([C@@H]5CCC[C@@]5(C)O)c4n3)CC2)cc1 [Example 8] | 50 to 5200 nM | 50 to 5200 nM | ≤ 50 nM | ≤ 50 nM | < 10 nM | 10 to 100 nM | < 10 nM
C[C@@]1(O)CCC[C@H]1n1c(=O)c(OC(F)F)cc2cnc(NC3CCN(S(=O)(=O)c4ccccc4C#N)CC3)nc21 [Example 9] | 50 to 5200 nM | 50 to 5200 nM | ≤ 50 nM | 50 to 5200 nM | < 10 nM | < 10 nM | < 10 nM
COc1cccc(S(=O)(=O)N2CCC(Nc3ncc4cc(OC(F)F)c(=O)n([C@@H]5CCC[C@@]5(C)O)c4n3)CC2)c1 [Example 10] | 50 to 5200 nM | 50 to 5200 nM | ≤ 50 nM | ≤ 50 nM | < 10 nM | < 10 nM | < 10 nM
C[C@@]1(O)CCC[C@H]1n1c(=O)c(OC(F)F)cc2cnc(NC3CCN(S(=O)(=O)c4ccc(S(C)(=O)=O)cc4)CC3)nc21 [Example 11] | ≤ 50 nM | ≤ 50 nM | ≤ 50 nM | ≤ 50 nM | < 10 nM | < 10 nM | < 10 nM
COc1ccccc1S(=O)(=O)N1CCC(Nc2ncc3cc(OC(F)F)c(=O)n([C@@H]4CCC[C@@]4(C)O)c3n2)CC1 [Example 14] | 50 to 5200 nM | 50 to 5200 nM | 50 to 5200 nM | ≤ 50 nM | < 10 nM | 10 to 100 nM | < 10 nM
C[C@@]1(O)CCC[C@H]1n1c(=O)c(OC(F)F)cc2cnc(NC3CCN(S(=O)(=O)c4cc(F)cc(F)c4)CC3)nc21 [Example 15] | 50 to 5200 nM | 50 to 5200 nM | 50 to 5200 nM | 50 to 5200 nM | < 10 nM | < 10 nM | < 10 nM
C[C@@]1(O)CCC[C@H]1n1c(=O)c(OC(F)F)cc2cnc(NC3CCN(S(=O)(=O)c4ccccc4)CC3)nc21 [Example 16] | ≤ 50 nM | ≤ 50 nM | ≤ 50 nM | ≤ 50 nM | < 10 nM | < 10 nM | < 10 nM
C[C@@]1(O)CCC[C@H]1n1c(=O)c(OC(F)F)cc2cnc(NC3CCN(S(=O)(=O)c4cccc(F)c4)CC3)nc21 [Example 17] | ≤ 50 nM | ≤ 50 nM | ≤ 50 nM | ≤ 50 nM | < 10 nM | < 10 nM | < 10 nM
C[C@@]1(O)CCC[C@H]1n1c(=O)c(OC(F)F)cc2cnc(NC3CCN(S(=O)(=O)c4ccc(F)c(F)c4)CC3)nc21 [Example 18] | ≤ 50 nM | 50 to 5200 nM | ≤ 50 nM | ≤ 50 nM | < 10 nM | < 10 nM | < 10 nM
CN(C)c1ccc(S(=O)(=O)N2CCC(Nc3ncc4cc(OC(F)F)c(=O)n([C@@H]5CCC[C@@]5(C)O)c4n3)CC2)cc1 [Example 22] | 50 to 5200 nM | 50 to 5200 nM | ≤ 50 nM | ≤ 50 nM | < 10 nM | 10 to 100 nM | < 10 nM
CC(C)(C)c1ccc(S(=O)(=O)N2CCC(Nc3ncc4cc(OC(F)F)c(=O)n([C@@H]5CCC[C@@]5(C)O)c4n3)CC2)cc1 [Example 23] | 200 to 51000 nM | 50 to 5200 nM | 50 to 5200 nM | 50 to 5200 nM | < 10 nM | 10 to 100 nM | 10 to 100 nM
COc1ccc(S(=O)(=O)N2CCC(Nc3ncc4cc(OC(F)F)c(=O)n([C@@H]5CCC[C@@]5(C)O)c4n3)CC2)cc1 [Example 24] | ≤ 50 nM | ≤ 50 nM | ≤ 50 nM | ≤ 50 nM | < 10 nM | < 10 nM | < 10 nM
C[C@@]1(O)CCC[C@H]1n1c(=O)c(OC(F)F)cc2cnc(NC3CCN(S(=O)(=O)c4ccccc4F)CC3)nc21 [Example 25] | 50 to 5200 nM | 50 to 5200 nM | ≤ 50 nM | ≤ 50 nM | < 10 nM | 10 to 100 nM | < 10 nM
C[C@@]1(O)CCC[C@H]1n1c(=O)c(OC(F)F)cc2cnc(NC3CCN(S(=O)(=O)c4cc(F)ccc4F)CC3)nc21 [Example 26] | 50 to 5200 nM | 50 to 5200 nM | 50 to 5200 nM | ≤ 50 nM | < 10 nM | 10 to 100 nM | < 10 nM
CCCc1ccc(S(=O)(=O)N2CCC(Nc3ncc4cc(OC(F)F)c(=O)n([C@@H]5CCC[C@@]5(C)O)c4n3)CC2)cc1 [Example 28] | 200 to 51000 nM | 50 to 5200 nM | 50 to 5200 nM | 50 to 5200 nM | < 10 nM | 10 to 100 nM | < 10 nM
C[C@@]1(O)CCC[C@H]1n1c(=O)c(OC(F)F)cc2cnc(NC3CCN(S(=O)(=O)c4cccnc4)CC3)nc21 [Example 51] | 50 to 5200 nM | ≤ 50 nM | ≤ 50 nM | ≤ 50 nM | < 10 nM | < 10 nM | < 10 nM
C[C@@]1(O)CCC[C@H]1n1c(=O)c(OC(F)F)cc2cnc(Nc3ccc4c(c3)CN(S(C)(=O)=O)C4)nc21 [Example 64] | 50 to 5200 nM | 50 to 5200 nM | ≤ 50 nM | ≤ 50 nM | < 10 nM | 10 to 100 nM | < 10 nM
CC(C)(O)Cn1cc(S(=O)(=O)N2CCC(Nc3ncc4cc(OC(F)F)c(=O)n([C@@H]5CCC[C@@]5(C)O)c4n3)CC2)cn1 [Example 75] | 50 to 5200 nM | ≤ 50 nM | ≤ 50 nM | ≤ 50 nM | < 10 nM | 10 to 100 nM | < 10 nM
